This assay has as its target T1, CRTh2 receptor (Homo sapiens, UniProt Q9Y5Y4).
T1 construct: expressed in transfected cells; host or cells: CHO.K1 (Chinese Hamster Ovary) cells, line CHO.K1-CRTh2
T1 sequence (Q9Y5Y4 1-395): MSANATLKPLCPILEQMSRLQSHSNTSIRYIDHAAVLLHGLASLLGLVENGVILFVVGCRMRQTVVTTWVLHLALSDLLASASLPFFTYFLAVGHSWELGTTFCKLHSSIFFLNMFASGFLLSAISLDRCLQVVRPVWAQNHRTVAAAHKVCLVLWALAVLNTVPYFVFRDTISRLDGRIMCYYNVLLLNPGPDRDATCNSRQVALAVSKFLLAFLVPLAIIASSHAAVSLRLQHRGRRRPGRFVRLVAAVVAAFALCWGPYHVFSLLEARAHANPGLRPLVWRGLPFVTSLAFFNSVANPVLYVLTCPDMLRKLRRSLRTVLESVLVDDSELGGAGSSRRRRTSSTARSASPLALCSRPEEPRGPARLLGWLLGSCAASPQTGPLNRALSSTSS
The experiment in a line: Filtration binding assay: competition with [3H]-PGD2 on CHO.K1-CRTh2 membranes (called SPA binding assay). To be noted: [3H]-PGD2 2.5 nM. As to the method:
Filtration Binding Assay Protocol
The binding of CRTh2 antagonists is determined using membranes prepared from human CRTh2-expressing Chinese Hamster Ovary cells (CHO.K1-CRTh2). To produce cell membranes CHO.K1-CRTh2 cells cultured in roller bottles are harvested using cell dissociation buffer (Invitrogen). The cells are pelleted by centrifugation (167 g, 5 min). […] At 4° C. cells are homogenized using a Polytron® (IKA Ultra Turrax T25) for 5 bursts of 1 second.
The binding of [^3H]-PGD2 (157 Ci/mmol) to CHO.K1-CRTh2 membranes is determined in the absence (total binding) and presence (non-specific binding) of unlabelled PGD2 (1 μM). Subtraction of the cpm (counts per minute) of [^3H]-PGD2 binding in presence of excess unlabelled PGD2 from that observed in the absence of excess unlabelled PGD2 is defined as specific binding. […]
The plates are incubated at room temperature on a shaker for 1 hour, and then harvested (Tomtec Harvester 9600) onto GF/C filter plates using wash buffer (10 mM HEPES-KOH, pH 7.4). […] Plates are then counted using a Packard Top Count instrument, Plates are then read on the Packard Topcount with the 3H Scintillation program (1 min per well). […]
Ki values are determined using Sigma Plot™ software, using the Cheng-Prussoff equation. […]

This note sets out measurements from US9169251B2, “Pyrrolopyridine derivatives and their use as CRTH2 antagonists” (Novartis AG, priority 2004, dated 2015).

Molecules are shown by their SMILES.

As for `Cc1c(CC(=O)O)c2cccnc2n1Cc1ccc(S(C)(=O)=O)cc1C(F)(F)F` [Example 95, [1-(4-Methanesulfonyl-2-trifluoromethyl-benzyl)-2-methyl-1H-pyrrolo[2,3-b]pyridin-3-yl]-acetic acid], the Ki stood at 4 nM.
